Source: BindingDB's records for doi:10.1021/jm00095a011 (Centre De Recherche De Vitry-Alfortville, 1992)

Test: Capability to inhibit the binding of [3H]LTB4 to guinea pig spleen Leukotriene B4 receptor at the concentration of 10e-5 M

Q: With `Cc1cc(CCCc2ccccc2)c(SCCCCCC(=O)O)s1` as the compound, how does the IC50 read?
A: Its IC50 is 3000 nM.

Q: With `O=C(O)CCCCCCc1csc(Cc2ccccc2)c1` as the compound, how does the IC50 read?
A: The IC50 was 10000 nM.

Q: For `O=C(O)CCCCCCc1csc(CCc2ccccc2)c1`, which IC50 is on record?
A: Its IC50 is 10000 nM.

Q: Which IC50 does the source give for `O=C(O)CCCCCCc1csc(CCCc2ccc(Cl)cc2)c1` here?
A: The IC50 was 1000 nM.

Q: With `Cc1cc(CCCc2ccccc2)c(CCCCCC(C)C(=O)O)s1` (stereo not drawn) as the compound, how does the IC50 read?
A: The IC50 was 300 nM.

Q: For `CC(CCCCCc1sccc1CCCc1ccccc1)C(=O)O` (stereo not drawn), which IC50 is on record?
A: The IC50 was 110 nM.

Q: Which IC50 does the source give for `O=C(O)CCCCCCc1sccc1CCCc1ccccc1` here?
A: Its IC50 is 1000 nM.

Q: Which IC50 does the source give for `O=C(O)CCCCCCc1csc(CCCc2ccc(O)cc2)c1` here?
A: Its IC50 is 5000 nM.

Q: Which IC50 does the source give for `O=C(O)CCCCCCc1sc(-c2ccccc2)cc1CCCc1ccccc1` here?
A: Its IC50 is 1000 nM.

Q: Which IC50 does the source give for `O=C(O)CCCCc1sccc1CCCc1ccccc1` here?
A: The IC50 was 3500 nM.

Q: Which IC50 does the source give for `O=C(O)CCCCCC(O)c1sccc1CCCc1ccccc1` (stereo not drawn) here?
A: The IC50 was 6000 nM.

Q: For `Cc1cc(CCCCCCC(=O)O)c(CCCc2ccccc2)s1`, which IC50 is on record?
A: The IC50 was 700 nM.

Q: For `CC(C)(CCCCCc1sc(-c2ccccc2)cc1CCCc1ccccc1)C(=O)O`, which IC50 is on record?
A: The IC50 was 800 nM.

Q: Which IC50 does the source give for `Cc1cc(CCCCCC(C)C(=O)O)c(CCCc2ccccc2)s1` (stereo not drawn) here?
A: Its IC50 is 300 nM.

Q: Which IC50 does the source give for `CC(C)(CCCCCc1cc(-c2ccccc2)sc1CCCc1ccccc1)C(=O)O` here?
A: Its IC50 is 1200 nM.

Q: Which IC50 does the source give for `O=C(O)CCCCCCc1ccsc1CCCc1ccc(Cl)cc1` here?
A: The IC50 was 1000 nM.

Test: Capability of compound to inhibit the binding of [3H]LTB4 to guinea pig spleen Leukotriene B4 receptor at the concentration of 10e-5 M

Q: With `Cc1cc(CCCc2ccccc2)c(CCCCCC(C)(C)C(=O)O)s1` as the compound, how does the IC50 read?
A: Its IC50 is 200 nM.

Test: Capability of compound to inhibit the binding of [3H]LTB4 to guinea pig spleen Leukotriene B4 receptors at the concentration of 10e-5 M

Q: With `O=C(O)CCCCCCc1ccsc1CCCc1ccccc1` as the compound, how does the IC50 read?
A: The IC50 was 1000 nM.
